Data reported in PubChem BioAssay AID248 (DTP/NCI, 2004).
Toxic doses and inconclusive results are not listed. Cut-off read from the data, not from the text of the source: active = T/C of 150% or more; inactive = T/C below 125%. Numbered stars: 1 amine (or outer) side, 2 acyl side, 3 side chain; on linkers, the order of the positions; unused ones are H or OH. Bridge positions count the residues as written; N and C are the ends. Square brackets hold non-standard residues; d marks the D form. Peptide text beside a SMILES is read from it. I, II: the chains in the order shown. Actinocin(9to1) = Cc1c2oc3c(C)ccc(C(=O)[*:1])c3nc-2c(C(=O)[*:2])c(N)c1=O; X4 = O=C(C1CC(Cl)CN1[*:1])[*:2]; NMeV = CN[CH](C(=O)O)C(C)C; Sar = CNCC(=O)O

Tested on: L1210 leukemia ip in BDF1 mice, survival T/C
Assay: NCI In Vivo Anticancer Drug Screen. Data for tumor model L1210 Leukemia (intraperitoneal) in B6D2F1 (BDF1) mice
Settings: endpoint: mean survival time, higher = longer survival
Method in brief: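 Each compound was tested against a transplantable tumor grown in mice. The endpoint was survival, with treated animals benchmarked against vehicle controls as a simple ratio.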

[1] = dose: 50.0 mg/kg/injection, schedule: Q01DX009 (ip), vehicle: Klucel (hydroxypropylcellulose) (HPC)
[2] = dose: 100.0 mg/kg/injection, schedule: Q01DX009 (ip), vehicle: Klucel (hydroxypropylcellulose) (HPC)
[3] = dose: 100.0 mg/kg/injection, schedule: Q04DX003 (ip), vehicle: saline
[4] = dose: 200.0 mg/kg/injection, schedule: Q04DX003 (ip), vehicle: saline
[5] = dose: 100.0 mg/kg/injection, schedule: Q01DX009 (ip), vehicle: saline
[6] = dose: 200.0 mg/kg/injection, schedule: Q01DX009 (ip), vehicle: saline
[7] = dose: 100.0 mg/kg/injection, schedule: Q04DX003 (ip), vehicle: Klucel (hydroxypropylcellulose) (HPC)
[8] = dose: 200.0 mg/kg/injection, schedule: Q04DX003 (ip), vehicle: Klucel (hydroxypropylcellulose) (HPC)

Measured: T/C

NNc1ncnc2c(C3OC(CO)C(O)C3O)[nH]nc12 (stereo unspecified)
inactive: dose: 12.5 mg/kg/injection, schedule: Q01DX009 (ip), vehicle: Klucel (hydroxypropylcellulose) (HPC) 111 % of control | dose: 20.0 mg/kg/injection, schedule: Q01DX009 (ip), vehicle: water 107 % of control | dose: 25.0 mg/kg/injection, schedule: Q01DX005 (ip), vehicle: Klucel (hydroxypropylcellulose) (HPC) 118 % of control | dose: 30.0 mg/kg/injection, schedule: Q01DX009 (ip), vehicle: water 107 % of control | dose: 45.0 mg/kg/injection, schedule: Q01DX009 (ip), vehicle: water 112 % of control | dose: 50.0 mg/kg/injection, schedule: Q01DX005 (ip), vehicle: Klucel (hydroxypropylcellulose) (HPC) 124 % of control | dose: 50.0 mg/kg/injection, schedule: Q01DX005 (ip), vehicle: saline 118 % of control | [1] 113 % of control | dose: 67.0 mg/kg/injection, schedule: Q01DX009 (ip), vehicle: water 122 % of control | [2] 122 % of control | [3] 118 % of control | dose: 100.0 mg/kg/injection, schedule: Q08DX002 (ip), vehicle: saline 102 % of control | dose: 150.0 mg/kg/injection, schedule: Q01DX009 (ip), vehicle: saline 120 % of control | dose: 200.0 mg/kg/injection, schedule: Q01DX005 (ip), vehicle: Klucel (hydroxypropylcellulose) (HPC) 106 % of control | dose: 200.0 mg/kg/injection, schedule: Q01DX005 (ip), vehicle: saline 106 % of control | [4] 122 % of control | dose: 200.0 mg/kg/injection, schedule: Q08DX002 (ip), vehicle: saline 122 % of control | dose: 800.0 mg/kg/injection, schedule: Q08DX002 (ip), vehicle: saline 104 % of control

Cc1c2oc3c(C)ccc(C(=O)NC4C(=O)NC(C(C)C)C(=O)N5CC(Cl)CC5C(=O)N(C)CC(=O)N(C)C(C(C)C)C(=O)OC4C)c3nc-2c(C(=O)NC2C(=O)NC(C(C)C)C(=O)N3CC(Cl)CC3C(=O)N(C)CC(=O)N(C)C(C(C)C)C(=O)OC2C)c(N)c1=O (stereo unspecified) (I: TV[X4][Sar][NMeV] / II: TV[X4][Sar][NMeV]; ester I:1-I:C, II:1-II:C; linker I:N-II:N via Actinocin(9to1); configuration not given here)
inactive: dose: 200.0 micrograms/kg/injection, schedule: Q01DX009 (ip), vehicle: saline + alcohol 117 % of control | dose: 300.0 micrograms/kg/injection, schedule: Q01DX009 (ip), vehicle: saline + alcohol 123 % of control | dose: 600.0 micrograms/kg/injection, schedule: Q01DX009 (ip), vehicle: saline + alcohol 124 % of control | dose: 800.0 micrograms/kg/injection, schedule: Q04DX003 (ip), vehicle: saline + alcohol 122 % of control | dose: 4800.0 micrograms/kg/injection, schedule: Q04DX003 (ip), vehicle: saline + alcohol 121 % of control
active: dose: 800.0 micrograms/kg/injection, schedule: Q01DX009 (ip), vehicle: saline + alcohol 156 % of control

Nc1ccc(S(=O)(=O)c2cc(O)ccc2O)cc1
inactive: dose: 100.0 mg/kg/injection, schedule: Q01DX001 (ip), vehicle: carboxymethylcellulose (CMC) 101 % of control | dose: 200.0 mg/kg/injection, schedule: Q01DX001 (ip), vehicle: carboxymethylcellulose (CMC) 100 % of control | dose: 400.0 mg/kg/injection, schedule: Q01DX001 (ip), vehicle: carboxymethylcellulose (CMC) 97 % of control

O=C1c2ccccc2C2NCCCN12 (stereo unspecified)
inactive: [5] 102 % of control | [6] 100 % of control | dose: 400.0 mg/kg/injection, schedule: Q01DX009 (ip), vehicle: saline 96 % of control

Cc1cccc2sc(=S)[nH]c12
inactive: dose: 37.5 mg/kg/injection, schedule: Q04DX003 (ip), vehicle: Klucel (hydroxypropylcellulose) (HPC) 107 % of control | dose: 75.0 mg/kg/injection, schedule: Q01DX009 (ip), vehicle: Klucel (hydroxypropylcellulose) (HPC) 92 % of control | dose: 75.0 mg/kg/injection, schedule: Q04DX003 (ip), vehicle: Klucel (hydroxypropylcellulose) (HPC) 101 % of control | dose: 150.0 mg/kg/injection, schedule: Q01DX009 (ip), vehicle: Klucel (hydroxypropylcellulose) (HPC) 92 % of control | dose: 150.0 mg/kg/injection, schedule: Q04DX003 (ip), vehicle: Klucel (hydroxypropylcellulose) (HPC) 93 % of control | dose: 300.0 mg/kg/injection, schedule: Q01DX009 (ip), vehicle: Klucel (hydroxypropylcellulose) (HPC) 93 % of control | dose: 300.0 mg/kg/injection, schedule: Q04DX003 (ip), vehicle: Klucel (hydroxypropylcellulose) (HPC) 95 % of control

Clc1c(Cl)c(CBr)c(Cl)c(CBr)c1Cl
inactive: [1] 104 % of control | [7] 103 % of control | [8] 109 % of control

CCCCCCCCCCCCOC(=N)N1CCOCC1
inactive: dose: 11.1 mg/kg/injection, schedule: Q01DX Z (ip), vehicle: saline 102 % of control | dose: 16.6 mg/kg/injection, schedule: Q01DX Z (ip), vehicle: saline 102 % of control | dose: 25.0 mg/kg/injection, schedule: Q01DX Z (ip), vehicle: saline 98 % of control

COc1cc2c(cc1OC)/C(=N\O)CCCC2
inactive: dose: 100.0 mg/kg/injection, schedule: Q01DX009 (ip), vehicle: saline sonified 97 % of control | [7] 96 % of control | dose: 200.0 mg/kg/injection, schedule: Q01DX009 (ip), vehicle: saline sonified 94 % of control | [8] 94 % of control | dose: 400.0 mg/kg/injection, schedule: Q01DX009 (ip), vehicle: saline sonified 100 % of control | dose: 400.0 mg/kg/injection, schedule: Q04DX003 (ip), vehicle: Klucel (hydroxypropylcellulose) (HPC) 97 % of control

ClCC1COC(CCc2ccccc2)O1 (stereo unspecified)
inactive: dose: 222.0 mg/kg/injection, schedule: Q01DX Z (ip), vehicle: saline 95 % of control | dose: 333.0 mg/kg/injection, schedule: Q01DX Z (ip), vehicle: saline 95 % of control | dose: 500.0 mg/kg/injection, schedule: Q01DX Z (ip), vehicle: saline 113 % of control

CC[n+]1ccc(Cc2ccc([N+](=O)[O-])cc2)cc1
inactive: dose: 25.0 mg/kg/injection, schedule: Q01DX009 (ip), vehicle: Klucel (hydroxypropylcellulose) (HPC) 102 % of control | [1] 95 % of control | [2] 100 % of control

NCC1COc2ccccc2O1 (stereo unspecified)
inactive: dose: 75.0 mg/kg/injection, schedule: Q01DX001 (ip), vehicle: carboxymethylcellulose (CMC) 98 % of control | dose: 150.0 mg/kg/injection, schedule: Q01DX001 (ip), vehicle: carboxymethylcellulose (CMC) 96 % of control | dose: 300.0 mg/kg/injection, schedule: Q01DX001 (ip), vehicle: carboxymethylcellulose (CMC) 96 % of control

CON(C)S(=O)(=O)c1ccc([N+](=O)[O-])cc1
inactive: dose: 100.0 mg/kg/injection, schedule: Q01DX001 (ip), vehicle: Klucel (hydroxypropylcellulose) (HPC) 102 % of control | dose: 200.0 mg/kg/injection, schedule: Q01DX001 (ip), vehicle: Klucel (hydroxypropylcellulose) (HPC) 98 % of control

C=CCn1cnc(=N)c2[nH]cnc21
inactive: dose: 50.0 mg/kg/injection, schedule: Q01DX009 (ip), vehicle: saline 94 % of control | [5] 87 % of control | [3] 90 % of control | [6] 93 % of control | [4] 94 % of control

CCCCCC(C)C(=O)CCCC (stereo unspecified) (tested in a mixture with another compound)
inactive: dose: 100.0 mg/kg/injection, schedule: Q04DX003 (ip), vehicle: saline with Tween-80 106 % of control | dose: 200.0 mg/kg/injection, schedule: Q04DX003 (ip), vehicle: saline with Tween-80 97 % of control | dose: 400.0 mg/kg/injection, schedule: Q04DX003 (ip), vehicle: saline with Tween-80 86 % of control

N#CC(O)C(Br)(Br)Br (stereo unspecified)
inactive: dose: 5.0 mg/kg/injection, schedule: Q01DX001 (ip), vehicle: saline 97 % of control | dose: 10.0 mg/kg/injection, schedule: Q01DX001 (ip), vehicle: saline 92 % of control | dose: 20.0 mg/kg/injection, schedule: Q01DX001 (ip), vehicle: saline 101 % of control

COC(=O)C1=C(C(=O)OC)C2CCC1C2
inactive: dose: 100.0 mg/kg/injection, schedule: Q01DX009 (ip), vehicle: other 103 % of control | dose: 200.0 mg/kg/injection, schedule: Q01DX009 (ip), vehicle: other 103 % of control | dose: 400.0 mg/kg/injection, schedule: Q01DX009 (ip), vehicle: other 98 % of control

O=C(O)c1c(-c2nccc3ccccc23)[nH]c(-c2ccccc2)c1S(=O)(=O)O
inactive: dose: 75.0 mg/kg/injection, schedule: Q01DX001 (ip), vehicle: saline 103 % of control | dose: 150.0 mg/kg/injection, schedule: Q01DX001 (ip), vehicle: saline 101 % of control
